# Assay results reported in PMC7093416, “Selective USP7 inhibition elicits cancer cell killing through a p53-dependent mechanism” (Scientific Reports, 2020).
# “And” between values parts separate entries of the source, which are not always exact repeats. Equal values may be shown once.
# System: panel of 484 cancer cell lines
# Test: PRISM cancer cell line profiling, 5 days
# Format: cell-based
# Parameters: Viability: scale not given here; AUC: unit not given beside the values
# Method: Cancer cell line profiling was performed using the Broad’s PRISM platform. Cell treatment and data analysis were performed as described in Yu et al[42]. Raw Luminex signal was converted to AUC values for each cell line as described. The resulting AUC profile for each compound was modeled against DepMap using the limma package in R[71]. Because hotspot mutation analysis was performed against DepMap, TP53 annotations in Fig. 6c,d are directly from DepMap.
# [1] = GCIY_STOMACH, pert_dose 6.10E-04
# [2] = GCT_SOFT_TISSUE, pert_dose 6.10E-04
# [3] = GI1_CENTRAL_NERVOUS_SYSTEM, pert_dose 6.10E-04
# [4] = GMS10_CENTRAL_NERVOUS_SYSTEM, pert_dose 6.10E-04
# [5] = GOS3_CENTRAL_NERVOUS_SYSTEM, pert_dose 6.10E-04
# [6] = HCC56_LARGE_INTESTINE, pert_dose 6.10E-04
# [7] = HCC366_LUNG, pert_dose 6.10E-04
# [8] = HCC1143_BREAST, pert_dose 6.10E-04
# [9] = HCC1195_LUNG, pert_dose 6.10E-04
# [10] = HCC1359_LUNG, pert_dose 6.10E-04
# [11] = HCC1419_BREAST, pert_dose 6.10E-04
# [12] = HCC1428_BREAST, pert_dose 6.10E-04
# [13] = HCC1438_LUNG, pert_dose 6.10E-04
# [14] = HCC1806_BREAST, pert_dose 6.10E-04
# [15] = HCC4006_LUNG, pert_dose 6.10E-04
# [16] = HCT15_LARGE_INTESTINE, pert_dose 6.10E-04
# [17] = HCT116_LARGE_INTESTINE, pert_dose 6.10E-04
# [18] = HDQP1_BREAST, pert_dose 6.10E-04
structure (smiles),measurement,setting,value
COc1ccc(C2=N[C@@H](c3ccc(Cl)cc3)[C@@H](c3ccc(Cl)cc3)N2C(=O)N2CCNC(=O)C2)c(OC(C)C)c1 [Nutlin-3A],AUC,FTC238_THYROID,1.264
same,MFI FTC238_THYROID,"FTC238_THYROID, pert_dose 6.10E-04",2880 and 3372 and 2980.5 and 2950.5 and 4003.5
same,AUC,G292CLONEA141B1_BONE,1.148
same,AUC,G361_SKIN,1.031
same,MFI G361_SKIN,"G361_SKIN, pert_dose 6.10E-04",10064 and 9507.5 and 5703 and 7102 and 9477
same,AUC,G401_SOFT_TISSUE,0.8138
same,AUC,G402_SOFT_TISSUE,0.8312
same,MFI G402_SOFT_TISSUE,"G402_SOFT_TISSUE, pert_dose 6.10E-04",8566 and 7883 and 9123.5 and 10028.5 and 7843.5
same,AUC,GAMG_CENTRAL_NERVOUS_SYSTEM,1.104
same,AUC,GB1_CENTRAL_NERVOUS_SYSTEM,1.08
same,MFI GB1_CENTRAL_NERVOUS_SYSTEM,"GB1_CENTRAL_NERVOUS_SYSTEM, pert_dose 6.10E-04",8797 and 10917.5 and 10369 and 11626 and 6173
same,AUC,GCIY_STOMACH,1.0178
same,MFI GCIY_STOMACH,[1],10513.5 and 10287.5 and 8158.5 and 7393 and 6559.5
same,Viability,[1],1.05
same,AUC,GCT_SOFT_TISSUE,1.1243
same,MFI GCT_SOFT_TISSUE,[2],30402 and 32248 and 27974 and 25401 and 26115.5
same,Viability,[2],1.1
same,AUC,GI1_CENTRAL_NERVOUS_SYSTEM,1.1989
same,MFI GI1_CENTRAL_NERVOUS_SYSTEM,[3],7007.5 and 7677 and 5613.5 and 9782 and 8476.5
same,Viability,[3],1.209
same,AUC,GMS10_CENTRAL_NERVOUS_SYSTEM,1.196
same,MFI GMS10_CENTRAL_NERVOUS_SYSTEM,[4],2195 and 3287.5 and 2615 and 2263.5 and 2230
same,Viability,[4],0.8757
same,AUC,GOS3_CENTRAL_NERVOUS_SYSTEM,0.8893
same,MFI GOS3_CENTRAL_NERVOUS_SYSTEM,[5],16506.5 and 12732.5 and 12479 and 15312 and 16884
same,Viability,[5],1.256
same,AUC,GP2D_LARGE_INTESTINE,0.8664
same,AUC,H4_CENTRAL_NERVOUS_SYSTEM,0.8741
same,AUC,HARA_LUNG,1.148
same,MFI HARA_LUNG,"HARA_LUNG, pert_dose 6.10E-04",10420 and 10731 and 9850 and 12219 and 8432
same,Viability,"HARA_LUNG, pert_dose 6.10E-04",1.156
same,AUC,HCC15_LUNG,1.083
same,MFI HCC15_LUNG,"HCC15_LUNG, pert_dose 6.10E-04",10708.5 and 9658 and 9646.5 and 7600 and 8929.5
same,AUC,HCC38_BREAST,1.13
same,AUC,HCC44_LUNG,1.143
same,MFI HCC44_LUNG,"HCC44_LUNG, pert_dose 6.10E-04",8858.5 and 14957 and 12427 and 9895 and 9714
same,Viability,"HCC44_LUNG, pert_dose 6.10E-04",0.9479
same,AUC,HCC56_LARGE_INTESTINE,1.116
same,MFI HCC56_LARGE_INTESTINE,[6],22390 and 19383.5 and 18019.5 and 16274 and 12370
same,Viability,[6],1.19
same,AUC,HCC78_LUNG,1.129
same,MFI HCC78_LUNG,"HCC78_LUNG, pert_dose 6.10E-04",13938.5 and 17123.5 and 16093 and 13546.5 and 12989
same,Viability,"HCC78_LUNG, pert_dose 6.10E-04",1.137
same,AUC,HCC95_LUNG,1.133
same,MFI HCC95_LUNG,"HCC95_LUNG, pert_dose 6.10E-04",19085 and 17009 and 14223 and 15820 and 14624.5
same,Viability,"HCC95_LUNG, pert_dose 6.10E-04",1.3736
same,AUC,HCC366_LUNG,1.1015
same,MFI HCC366_LUNG,[7],3176 and 4976 and 3338 and 4080 and 5551.5
same,Viability,[7],0.8601
same,AUC,HCC827_LUNG,1.216
same,AUC,HCC1143_BREAST,1.173
same,MFI HCC1143_BREAST,[8],10292 and 10056.5 and 12994 and 8725 and 11412
same,Viability,[8],1.09
same,AUC,HCC1195_LUNG,0.9896
same,MFI HCC1195_LUNG,[9],3248 and 2450 and 2557 and 3311 and 2339
same,Viability,[9],0.8066
same,AUC,HCC1359_LUNG,1.205
same,MFI HCC1359_LUNG,[10],3254.5 and 3202.5 and 4282 and 3759 and 4252
same,Viability,[10],1.0552
same,AUC,HCC1419_BREAST,1.157
same,MFI HCC1419_BREAST,[11],4554 and 3766 and 6250 and 4022 and 3342
same,Viability,[11],1.3281
same,AUC,HCC1428_BREAST,1.0418
same,MFI HCC1428_BREAST,[12],5601.5 and 4304.5 and 6512 and 4295 and 6602.5
same,Viability,[12],0.9769
same,AUC,HCC1438_LUNG,1.064
same,MFI HCC1438_LUNG,[13],3705.5 and 4037.5 and 3791 and 2958 and 2338
same,Viability,[13],1.029
same,AUC,HCC1588_LUNG,0.8674
same,MFI HCC1588_LUNG,"HCC1588_LUNG, pert_dose 6.10E-04",12748 and 13169 and 10479 and 16252.5 and 12413.5
same,AUC,HCC1806_BREAST,1.223
same,MFI HCC1806_BREAST,[14],4998.5 and 5222.5 and 6609 and 6768 and 3833.5
same,Viability,[14],1.444
same,AUC,HCC1937_BREAST,1.259
same,Viability,"HCC1937_BREAST, pert_dose 6.10E-04",0.8468
same,AUC,HCC4006_LUNG,1.075
same,MFI HCC4006_LUNG,[15],13511 and 17514.5 and 15021 and 17956 and 15891.5
same,Viability,[15],1.081
same,AUC,HCT15_LARGE_INTESTINE,1.231
same,MFI HCT15_LARGE_INTESTINE,[16],19712 and 17910 and 19958 and 21240.5 and 15477
same,Viability,[16],1.456
same,AUC,HCT116_LARGE_INTESTINE,0.9703
same,MFI HCT116_LARGE_INTESTINE,[17],29799 and 33721.5 and 25531.5 and 28789.5 and 30554.5
same,Viability,[17],1.204
same,AUC,HDQP1_BREAST,1.144
same,MFI HDQP1_BREAST,[18],7912.5 and 7534 and 9203 and 8805.5 and 8820
same,Viability,[18],1.159
same,AUC,HEC1A_ENDOMETRIUM,0.9522
same,AUC,HEC1B_ENDOMETRIUM,1.073
same,Viability,"HEC1B_ENDOMETRIUM, pert_dose 6.10E-04",0.9409
same,AUC,HEC6_ENDOMETRIUM,1.185
